Measured values reported in patent US20250236642A1, “PHARMACEUTICAL COMPOSITION FOR TREATMENT OR PREVENTION OF ADULT T-CELL LEUKEMIA” (NEC Corporation, priority 2022, published 2025).
Where two headings read alike, the source gives them in different places. No end group written: not given here.

What was measured:
HLA-A*02:01 molecule = molecular target: T1, HLA-A*02:01 molecule (Homo sapiens, UniProt P04439, D140Y/D185E/D98H/E176V/E277Q/G131W/G231S/I119V/I121R/I166T/I218V/L300P/L318F/N151K/N90K/P208A/P217A/Q86G/Q94H/R138H/R169H/T345S); experiment: Binding of peptide to HLA-A*02:01 molecule using cell line T2
T1 construct: using a cell line T2 (purchased from ATCC) expressing an HLA-A*02:01 molecule; host or cells: T2 cell line
Experimental: Measurement of binding ability of a peptide to an HLA-A*02:01 molecule, which is a product of an HLA-A*02:01 gene, was performed using a cell line T2 (purchased from ATCC) expressing an HLA-A*02:01 molecule.
T2 cells and purified β2m were added to a serial dilution series of a peptide whose binding ability was to be measured, and then the mixture was incubated at 37° C. for four hours. HLA-A*02:01 molecules whose expression level increased in a peptide concentration-dependent manner by this time point were stained using an association-type specific fluorescently labeled monoclonal antibody BB7.2.
Thereafter, the amount of fluorescence per cell was measured with a flow cytometer, and a dissociation constant Kd value was calculated by the method disclosed in the article (Udaka et al., Immunogenetics, 51, 816-828, 2000) by the present inventor.

HLA-A*24:02 molecule = HLA-A*24:02 molecule (Homo sapiens, UniProt P04439, D101N/D140Y/D185E/E176V/E190D/F33S/G103R/G107R/I119L/I121M/I306V/K335N/L105A/L180Q/L300P/N151K/N90K/Q86E/Q94H/R106L/R138H/R89G/T104I/T345S/V100E/W191G/Y123F); experiment: Binding of peptide to HLA-A*24:02 molecule using C1R-A24 cells
Experimental: Measurement of binding ability of a peptide to an HLA-A*24:02 molecule, which is a product of an HLA-A*24:02 gene, was performed using C1R-A24 cells expressing an HLA-A*24:02 molecule (Cells created by Professor Masafumi Takiguchi, Kumamoto University, was provided by Assistant Professor Masaki Yasukawa, Ehime University, with permission).
First, the C1R-A24 cells were exposed to acidic conditions at pH 3.3 for 30 seconds to dissociate and remove an endogenous peptide originally binding to an HLA-A*24:02 molecule and light chain β2m commonly associated with an HLA class I molecule. After neutralization, purified β2m was added to the C1R-A24 cells, and the mixture was added to a peptide dilution series and incubated on ice for four hours.
Thereafter, the number of MHC-peps for each C1R-A24 cell (proportional to a fluorescence intensity of the fluorescent antibody) was quantitatively measured using a fluorescence cell analyzer FACScan (Becton-Dickinson).

HLA-A*02:06 molecule = molecular target: T2, HLA-A*02:06 molecule (Homo sapiens, UniProt P04439, D140Y/D185E/D98H/E176V/E277Q/F33Y/G131W/G231S/I119V/I121R/I166T/I218V/L300P/L318F/N151K/N90K/P208A/P217A/Q86G/Q94H/R138H/R169H/T345S); experiment: Binding of peptide to HLA-A*02:06 molecule using RA2.6 cells
T2 construct: expressed in transfected cells; host or cells: RA2.6 cells (mouse TAP-deficient RMAS with HLA-A*02:06 cDNA)
Experimental: Measurement of binding ability of a peptide to an HLA-A*02:06 molecule, which is a product of an HLA-A*02:06 gene, was performed using RA2.6 cells (a cell line newly created at Kochi University) obtained by introducing cDNA of the HLA-A*02:06 gene into RMAS, which is a mouse transporter associated with antigen processing (TAP)-deficient cell line.
A fluorescently labeled monoclonal antibody BB7.2 that specifically recognizes a peptide binding type HLA-A*02:06 molecule was added thereto, and the mixture was incubated on ice for 20 minutes to stain the cells.

[1] = Table 2, dissociation constant Kd value (−log Kd value), >−3.0 = no significant binding ability, read-out: Measured value of allele A*02:01 (converted)
[2] = Table 2, dissociation constant Kd value (−log Kd value), >−3.0 = no significant binding ability, read-out: Measured value of allele A*24:02 (converted)
[3] = Table 4, Kd value (−log Kd value), smaller than −3 = binding property, read-out: Measured value of allele A*24:02 (converted)
[4] = Table 2, dissociation constant Kd value (−log Kd value), >−3.0 = no significant binding ability, read-out: Measured value of allele A*02:06 (converted)
[5] = Measured value of allele A*24:02, Table 2, dissociation constant Kd value (−log Kd value), >−3.0 = no significant binding ability

Kd (HLA-A*02:01 molecule; [1]) [µM] | Kd (HLA-A*24:02 molecule; [2]) [µM] | Kd (HLA-A*24:02 molecule; [3]) [µM] | Kd (HLA-A*02:06 molecule; [4]) [µM] | Sequence | further results
> 1000 | > 1000 | > 1000 | > 1000 | GILSDHQQS [compound 74] | –
> 1000 | > 1000 | > 1000 | > 1000 | STGESAQTS [compound 71] | –
83.1 | > 1000 | > 1000 | > 1000 | ATGDCSSFI [compound 59] | Measured value of allele A*02:06 (HLA-A*02:06 molecule; Table 4, Kd value (−log Kd value), smaller than −3 = binding property): >−3
> 1000 | > 1000 | > 1000 | > 1000 | GYITLGKPH [compound 80] | –
> 1000 | > 1000 | > 1000 | > 1000 | SLPNEKQTS [compound 69] | –
> 1000 | 68.4 | – | > 1000 | HMTSSERPF [compound 64] | –
> 1000 | 448 | – | > 1000 | LPFSPSQFL [compound 60] | –
> 1000 | > 1000 | > 1000 | > 1000 | SPDEFSNDF [compound 73] | –
> 1000 | 1.44 | – | > 1000 | SLLITRKSF [compound 62] | –

The next lines start with the sequence.

Sequence | Kd (HLA-A*02:01 molecule; [1]) [µM] | Kd (HLA-A*24:02 molecule; [2]) [µM] | Kd (HLA-A*24:02 molecule; [3]) [µM] | Kd (HLA-A*02:06 molecule; [4]) [µM] | further results
YQLSPPITW [compound 32] | – | – | – | – | Kd (HLA-A*02:01 molecule): 351 µM; Kd (HLA-A*24:02 molecule; [5]): 1.72 µM; Kd (HLA-A*24:02 molecule; Measured value of allele A*24:02, Table 4, Kd value (−log Kd value), smaller than −3 = binding property): 0.172 µM; Kd (HLA-A*02:06 molecule): 1.78 µM
LMEEHGATL [compound 13] | 12.1 | 5.98 | – | 2.1 | –
ALQFLIPRL [compound 22] | – | – | – | – | Kd (HLA-A*02:01 molecule): 1.26 µM; Kd (HLA-A*24:02 molecule; [5]): 10.9 µM; Kd (HLA-A*02:06 molecule): 1.45 µM
YVYDPPTTI [compound 2] | 0.696 | 0.584 | – | 2.8 | –
MLPQTPSHL [compound 24] | 2.64 | 0.0716 | – | 109 | –
AYRTCWIFS [compound 49] | > 1000 | 3.82 | – | > 1000 | –
ATAPPTAQL [compound 25] | 10.1 | 29.2 | – | 0.684 | –
YLYDPPTTI [compound 4] | 0.583 | 0.692 | – | 1.36 | –
LLNPNRQTI [compound 23] | 5.74 | 0.602 | – | 296 | –
IALETPVWI [compound 20] | – | – | – | – | Kd (HLA-A*02:01 molecule): 7.77 µM; Kd (HLA-A*24:02 molecule; [5]): 3.29 µM; Kd (HLA-A*02:06 molecule): 3.03 µM
AQAPPTAQL [compound 5] | – | – | – | – | Kd (HLA-A*02:01 molecule): 0.961 µM; Kd (HLA-A*24:02 molecule; [5]): 1.77 µM; Kd (HLA-A*02:06 molecule): 1.42 µM
ISAYRTCWI [compound 34] | > 1000 | 10 | – | 729 | –
FSNDFGQSL [compound 35] | 126 | > 1000 | > 1000 | 19.3 | –
LLLFSAAAL [compound 1] | 0.881 | 11.1 | – | 10.9 | –
ALRPAPALL [compound 26] | 0.774 | 0.397 | – | > 427 | Measured value of allele A*02:06 (HLA-A*02:06 molecule; Table 2, dissociation constant Kd value (−log Kd value), >−3.0 = no significant binding ability): >−3.37
LVEEHGATL [compound 43] | 66.1 | > 1000 | > 1000 | 13.7 | –
LAITRKSFI [compound 46] | > 1000 | 7.61 | – | 911 | –
LTEEHGATL [compound 42] | 82.1 | > 1000 | > 1000 | 11.9 | –
CTDEHQWQL [compound 39] | 9.07 | > 1000 | > 1000 | 0.16 | –
ALAPPTAQL [compound 6] | 0.265 | 4.69 | – | 0.392 | –
